Test results from patent US10191050B2, “Rationale, methods, and assays for identifying human and non-human primate taste specific genes and use thereof in taste modulator and therapeutic screening assays” (SENOMYX, INC., priority 2007, dated 2019).

Tested on: perceived human salt intensity
Assay: Human salty taste test: effect on perceived salt intensity (experiments by the inventors)
Type: in vivo
Source text: Unlike other mammals, amiloride only slightly reduces the intensity of sodium chloride taste, i.e., by about 15-20% when used at concentrations that specifically modulate ENaC function (Halpern, B. P. (1998) Neuroscience and Behavioral Reviews. 23: 5-47). […] Thus, additional non-ENaC genes are likely involved in human salty taste.

| SMILES | effect on perceived human salt intensity (tested at 300-fold above IC50 for alpha beta gamma ENaC (10-fold over IC50 for delta beta gamma ENaC)) | effect on perceived human salt intensity (tested at 3000-fold above IC50 for alpha beta gamma ENaC (100-fold over IC50 for delta beta gamma ENaC)) |
| --- | --- | --- |
| N=C(N)NC(=O)c1nc(Cl)c(N)nc1N [amiloride] | did not elicit a significant effect |  |
| NC(=Nc1ccccc1)NC(=O)c1nc(Cl)c(N)nc1N [phenamil] |  | did not elicit a significant effect |
